# Measurements reported in patent publication US10966426B2, “Herbicidal compositions comprising phenylpyrimidines” (BASF SE, priority 2016, dated 2021).
# Where two headings read alike, the source gives them in different places.
# Assays:
# Type in all cases: in vivo
# [1] = system: Poa annua; assay: greenhouse pre-emergence treatment, POAAN; conditions: 20 DAT
# How it was run: (§1)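 Seeds were sown per species in pots of loamy sand with about 3.0% humus, sprayed with the aqueous spray liquor directly after sowing, watered and hooded until rooted, then kept at 10-25° C. or 20-35° C. for 2 to 4 weeks. Damage was scored 0 (none) to 100 (no emergence/complete destruction).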
# [2] = system: Echinocloa crus-galli; assay: greenhouse pre-emergence treatment, ECHCG; conditions: 20 DAT
# Excerpt: (§2) The culture containers used were plastic pots containing loamy sand with approximately 3.0% of humus as substrate. The seeds of the test plants were sown separately for each species.
# For the pre-emergence treatment, the active compounds, suspended or emulsified in water, were applied directly after sowing by means of finely distributing nozzles. The containers were irrigated gently to promote germination and growth and subsequently covered with transparent plastic hoods until the plants had rooted. This cover caused uniform germination of the test plants unless this was adversely affected by the active compounds.
# (§3) Depending on the species, the plants were kept at 10-25° C. and 20-35° C., respectively.
# (§4) The test period extended over 2 to 4 weeks. During this time, the plants were tended and their response to the individual treatments was evaluated.
# (§5) Evaluation was carried out using a scale from 0 to 100. 100 means no emergence of the plants, or complete destruction of at least the above-ground parts, and 0 means no damage or normal course of growth. A good herbicidal activity is given at values of at least 70, and very good herbicidal activity is given at values of at least 85.
# (§6) The respective stated components A and B, and if appropriate, C were formulated as a 10% by weight strength emulsion concentrate and, with addition of the amount of solvent system, introduced into the spray liquor used for applying the active compound. In the examples, the solvent used was water.
# (§7) In the examples below, using the method of S. R. Colby (1967) “Calculating synergistic and antagonistic responses of herbicide combinations”, Weeds 15, p. 22ff., the value E, which is expected if the activity of the individual active compounds is only additive, was calculated. E=X+Y−(X·Y/100) where X=effect in percent using herbicide A at an application rate a; • Y=effect in percent using herbicide B at application rate b; • E=expected effect (in %) of herbicide A+herbicide B at application rates a+b.
# [3] = system: Apera spica-venti; assay: greenhouse post-emergence treatment, APESV; conditions: APESV, 20 DAT
# Procedure: as §2
# For the post-emergence treatment, the test plants were grown to a plant height of from 3 to 15 cm, depending on the plant habit, and only then treated with the active compounds which had been suspended or emulsified in water. To this end, the test plants were either sown directly, and grown in the same containers, or they were first grown separately as seedlings and transplanted into the test containers a few days prior to treatment.
# as §3, §4, §5, §6, §7
# [4] = system: Helianthus annuus; assay: greenhouse pre-emergence treatment, HELAN; conditions: Helianthus annuus, 480 h, HELAN, 20 DAT
# How it was run: as §1
# [5] = system: Apera spica-venti; assay: greenhouse pre-emergence treatment, APESV; conditions: 20 DAT
# How it was run: as §1
# [6] = system: Lolium multiflorum; assay: greenhouse pre-emergence treatment, LOLMU; conditions: Lolium multiflorum, 480 h, LOLMU, 20 DAT
# How it was run: as §1
# [7] = system: Alopecurus myosuroides; assay: greenhouse pre-emergence treatment, ALOMY; conditions: 20 DAT
# How it was run: as §1
# [8] = system: Galium aparine; assay: greenhouse pre-emergence treatment, GALAP; conditions: Galium aparine, 480 h, 20 DAT, GALAP
# How it was run: as §1
# [9] = system: Polygonum convolvulus; assay: greenhouse pre-emergence treatment, POLCO; conditions: Fallopia convolvulus, 480 h, 20 DAT, POLCO
# How it was run: as §1
# [10] = 125 gai/ha (EC 750 g/l), Table X1, read-out: % activity, solo application
# [11] = 62.5 gai/ha (EC 750 g/l), Table X1, read-out: % activity, solo application
# [12] = metribuzin WG 70% solo 125 gai/ha, read-out: % activity
# [13] = metribuzin WG 70% solo 250 gai/ha
smiles,measurement,setting,value
Cc1ccc(NC(=O)N(C)C)cc1Cl [chlorotoluron],% activity,[1]; chlorotoluron solo 125 gai/ha,0%
same,% activity,[1]; chlorotoluron solo 250 gai/ha,20%
same,% activity,[2]; chlorotoluron solo 62.5 gai/ha,0%
same,% activity,[2]; chlorotoluron solo 125 gai/ha,0%
same,% activity,[2]; chlorotoluron solo 250 gai/ha,35%
same,% activity,[2]; chlorotoluron solo 500 gai/ha,25%
same,% activity,[3]; chlorotoluron solo 62.5 gai/ha,25%
same,% activity,[3]; chlorotoluron solo 125 gai/ha,55%
same,plant injury at 500 g/ha,[4]; chlorotoluron solo 500 gai/ha,10%
same,% activity,[5]; chlorotoluron solo 62.5 gai/ha,55%
same,% activity,[5]; chlorotoluron solo 250 gai/ha,65%
same,% activity,[5]; chlorotoluron solo 500 gai/ha,65%
same,pest or weed control at 250 g/ha,[6]; chlorotoluron solo 250 gai/ha,0%
same,pest or weed control at 500 g/ha,[6]; chlorotoluron solo 500 gai/ha,10%
same,% activity,[7]; chlorotoluron solo 62.5 gai/ha,0%
same,% activity,[7]; chlorotoluron solo 125 gai/ha,0%
same,% activity,[7]; chlorotoluron solo 250 gai/ha,0%
Cc1ccccc1CO[C@@H]1C[C@@]2(C(C)C)CC[C@]1(C)O2 (racemic) [cinmethylin],inhibition at 125 g/ha,[4]; [10],10%
same,"% herbicidal activity (weed control, 0-100 scale) at 62.5 g/ha",[8]; [11],0%
same,"% herbicidal activity (weed control, 0-100 scale) at 125 g/ha",[8]; [10],20%
same,inhibition at 31.25 g/ha,"[9]; 31.25 gai/ha (EC 750 g/l), Table X1, read-out: % activity, solo application",0%
same,inhibition at 62.5 g/ha,[9]; [11],0%
same,inhibition at 125 g/ha,[9]; [10],0%
same,inhibition at 250 g/ha,"[9]; 250 gai/ha (EC 750 g/l), Table X1, read-out: % activity, solo application",0%
CCCCCCCCSC(=O)Oc1cc(Cl)nnc1-c1ccccc1 [pyridate],% activity,[3]; solo pyridate (WP 45%) 450 gai/ha,0%
same,inhibition at 112.5 g/ha,"[3]; Apera spica-venti, 480 h, pyridate solo 112.5 gai/ha",0%
same,inhibition at 225 g/ha,"[3]; Apera spica-venti, 480 h, pyridate solo 225 gai/ha",0%
same,inhibition at 450 g/ha,"[3]; Apera spica-venti, 480 h, pyridate solo 450 gai/ha",0%
same,inhibition at 900 g/ha,"[3]; Apera spica-venti, 480 h, pyridate solo 900 gai/ha",30%
CSc1nnc(C(C)(C)C)c(=O)n1N [metribuzin],inhibition at 62.5 g/ha,"[2]; Echinochloa crus-galli, 480 h, metribuzin WG 70% solo 62.5 gai/ha",30%
same,% activity,"[2]; solo, WG 70%, 31.25 gai/ha",0%
same,% activity,"[2]; solo, WG 70%, 62.5 gai/ha",30%
same,inhibition at 17.5 g/ha,"[3]; Apera spica-venti, 480 h, metribuzin WG 70% solo 17.5 gai/ha",10%
same,inhibition at 35 g/ha,"[3]; Apera spica-venti, 480 h, metribuzin WG 70% solo 35 gai/ha",55%
same,% activity,"[3]; solo, WG 70%, 17.5 gai/ha",10%
same,% activity,"[3]; solo, WG 70%, 35 gai/ha",55%
same,% activity,"[3]; solo, WG 70%, 70 gai/ha",90%
same,inhibition at 62.5 g/ha,[4]; metribuzin WG 70% solo 62.5 gai/ha,0%
same,inhibition at 125 g/ha,[4]; [12],0%
same,inhibition at 250 g/ha,[4]; [13],50%
same,plant injury at 31.25 g/ha,"[4]; solo, WG 70%, 31.25 gai/ha",0%
same,plant injury at 62.5 g/ha,"[4]; solo, WG 70%, 62.5 gai/ha",0%
same,plant injury at 250 g/ha,"[4]; solo, WG 70%, 250 gai/ha",50%
same,% activity,"[5]; solo, WG 70%, 31.25 gai/ha",30%
same,% activity,"[5]; solo, WG 70%, 62.5 gai/ha",50%
same,"% herbicidal activity (weed control, 0-100 scale) at 250 g/ha",[8]; [13],0%
same,pest or weed control at 250 g/ha,"[8]; solo, WG 70%, 250 gai/ha",0%
same,inhibition at 62.5 g/ha,"[9]; metribuzin WG 70% solo 62.5 gai/ha, read-out: % activity",0%
same,inhibition at 125 g/ha,[9]; [12],0%
same,inhibition at 250 g/ha,"[9]; metribuzin WG 70% solo 250 gai/ha, read-out: % activity",0%
same,pest or weed control at 62.5 g/ha,"[9]; solo, WG 70%, 62.5 gai/ha",0%
same,pest or weed control at 125 g/ha,"[9]; solo, WG 70%, 125 gai/ha",0%
CC(C)N(C(=O)COc1nnc(C(F)(F)F)s1)c1ccc(F)cc1 [flufenacet],"% herbicidal activity (weed control, 0-100 scale) at 15.6 g/ha",[8]; flufenacet SC 500 g/l solo 15.6 gai/ha,0%
same,"% herbicidal activity (weed control, 0-100 scale) at 31.25 g/ha",[8]; flufenacet SC 500 g/l solo 31.25 gai/ha,0%
same,"% herbicidal activity (weed control, 0-100 scale) at 62.5 g/ha","[8]; flufenacet SC 500 g/l solo 62.5 gai/ha, read-out: % activity",0%
same,"% herbicidal activity (weed control, 0-100 scale) at 125 g/ha","[8]; flufenacet SC 500 g/l solo 125 gai/ha, read-out: % activity",40%
same,inhibition at 62.5 g/ha,"[9]; sc, flufenacet SC 500 g/l solo 62.5 gai/ha, read-out: % activity",0%
same,inhibition at 125 g/ha,"[9]; sc, flufenacet SC 500 g/l solo 125 gai/ha, read-out: % activity",0%
